Assay results as given in patent publication US12544347B2, “Anti-cancer combination and a method of therapy using the combination” (NATIONAL CENTRE FOR CELL SCIENCE, priority 2018, dated 2026).
Counter-ions that a name gives are not always drawn.

Assays:
Type in all cases: cell-based
[1] = test system: prostate apoptosis response (Par)-4; assay: Western blotting of intracellular and secretory Par-4 in LN-18 cells; details: TAM 10 μg/ml, VPA 2 mM, alone or combined, 48 hr
Procedure: FIG. 4 depicts the effect of combination of tamoxifen (10 μg/ml) and valproic acid (2 mM) on the levels of secretory Par-4 and expression of GRP78 in […] cells wherein the control (C) represents untreated cells, V represents for valproic acid, T represents for tamoxifen and V+T represents combination of tamoxifen and valproic acid. The LN-18 cells were treated with tamoxifen or valproic acid alone or in combination for 48 hrs.
LN-18 cells were seeded in 6 well plate (0.3 million cells/well) and treated with TAM (10 μg/ml) and VPA (2 mM) either individually or in combination for 48 hr. Cell lysates were assessed for expression of intracellular prostate apoptosis response (Par)-4 and secretory Par-4 was measured in supernatants. Western blotting was done using 10% gels and the proteins were identified using specific antibodies followed by probing with luminol-based Enhanced Chemiluminescent (ECL) western blotting substrate. The results are presented at FIG. 4.

LN-229 cells = assay: MTT assay, cell viability in LN-229 cells (monolayer or multicellular spheroids); details: LN-229 MCS; TAM alone; 24 hr
Procedure: (§1) FIG. 1 depicts cell viability assessed by MTT assay in GBM cell lines-LN-18 and LN-229 using tamoxifen (TAM) at concentration of 5 μg/ml, 10 μg/ml and 15 μg/ml; individually and in combination with Valproic Acid (VPA) (2 mM) wherein the cells were cultured as monolayer (ML) or Multicellular Spheroids (MCS). Unt-open bar-represents untreated cells and hatched bar—[…] (2 mM). Further, the open bars (in 5, 10 15) depict TAM alone and the hatched bars depict TAM in combination with VPA. FIG. 1 also depicts the P values (represented as *) significant for differences between TAM alone versus TAM+VPA. The images are LN-18 cells grown as 2D cultures—ML and 3D-MCS.
MTT assay was employed for assessing the combined action of tamoxifen (TAM) and VPA. LN-18 cells and LN-229 were seeded in 96 well plate (5000 cells/100 ul/well) in complete medium and cultured for 24 hr in two culture models-monolayer and 3D culture. Cells were treated with tamoxifen (TAM) at 3 concentrations-5 μg/ml, 10 μg/ml and 15 μg/ml either individually or in combination with Valproic Acid (VPA) (2 mM) for 24 hr. MTT was added and after 4 hr the crystals were solubilized using DMSO. Absorbance was recorded at 490 nm (test filter) and 570 nm (reference filter). The % cell viability in treated cells was calculated considering the readings in untreated cells as 100%. The results are presented at FIG. 1. […]

LN-18 cells = assay: MTT assay, cell viability in LN-18 cells (monolayer or multicellular spheroids); details: 24 hr
Procedure: as §1
FIG. 3 depicts the effect of Valpromide (VPM), an analogue of VPA causing sensitization of tamoxifen (TAM) which induced cell death in LN-18 cells cultured as monolayer (ML). […] The P values (represented as *) are significant for differences between TAM alone versus TAM+VPA/VPM.
MTT assay was employed for assessing the combined action of tamoxifen (TAM) and VPA. LN-18 cells and LN-229 were seeded in 96 well plate (5000 cells/100 ul/well) in complete medium and cultured for 24 hr in two culture models-monolayer and 3D culture. Cells were treated with tamoxifen (TAM) at 3 concentrations-5 μg/ml, 10 μg/ml and 15 μg/ml either individually or in combination with Valproic Acid (VPA) (2 mM) for 24 hr. MTT was added and after 4 hr the crystals were solubilized using DMSO. Absorbance was recorded at 490 nm (test filter) and 570 nm (reference filter). The % cell viability in treated cells was calculated considering the readings in untreated cells as 100%. The results are presented at FIG. 1. […] From FIG. 1, it is evident that the combination of the present invention is synergistic.
LN-18 cells (ML) were seeded in 96 well plate (5000 cells/100 ul/well) in complete medium and cultured for 24 hr. […] Absorbance was recorded at 490 nm (test filter) and 570 nm (reference filter). The % cell viability with treatment was calculated with readings in untreated cells considered as 100%. […]

[2] = test system: prostate apoptosis response (Par)-4; assay: Western blotting of intracellular Par-4 in LN-229 cells; details: LN-229 cell lysates; TAM 12 μg/ml, VPA 2 mM, alone or combined; 24 hr
Procedure: FIG. 5 depicts the effect of tamoxifen (12 μg/ml) or valproic acid (2 mM) alone or combination of tamoxifen and valproic acid on Par-4 expression in LN-229 cells for 24 hr. GAPDH was used as loading control and control group (C) represents untreated cells. LN-229 cells were seeded in 6 well plate (0.3 million cells/well) and treated with TAM (12 μg/ml) and VPA (2 mM) either individually or in combination for 24 hr. Cell lysates were assessed for expression of intracellular prostate apoptosis response (Par)-4. Western blotting was done using 10% gels and the proteins were identified using specific antibodies followed by probing with luminol-based Enhanced Chemiluminescent (ECL) western blotting substrate.

**Q.** For CC/C(=C(\c1ccccc1)c1ccc(OCCN(C)C)cc1)c1ccccc1 [TAM, (Z)-2[p[(1,2-diphenyl-1-butenyl)phenoxyl]-N,N-dimethylamine citrate], which “cellular Par-4 level (western blot)” value ([1]; LN-18 cell lysates) is on record?
**A.** enhanced

**Q.** And the “secretory Par-4 level (western blot)” value ([1]; LN-18 supernatants)?
**A.** enhanced

**Q.** And the “effect on % cell viability (MTT)” value (LN-229 cells)?
**A.** resistant

**Q.** And the “effect on % cell viability (MTT)” value (LN-18 cells; LN-18 MCS, TAM alone)?
**A.** resistant

**Q.** And the “effect on % cell viability (MTT)” value (LN-18 cells; LN-18 cells, TAM 15 ug/ml alone)?
**A.** toxic

**Q.** And the “effect on % cell viability (MTT)” value (LN-18 cells; monolayer, TAM 5, 10 and 15 μg/ml alone)?
**A.** dose dependent

**Q.** Which “cellular Par-4 expression (western blot)” value [2] does the source give for CCCC(CCC)C(=O)O [VPA, Valproic acid] here?
**A.** induced
